In patent US9260382B2, “Methods of reducing virulence in bacteria” (priority 2010, dated 2016):
“Also recorded” adds a separate entry of the source.

How the values were obtained:
exoS promoter (T3SS) = test: exoS promoter-gfp reporter pATexoS, flow cytometry; format: cell-based, P. aeruginosa PA01; settings: for effect on exoS promoter activity, in words: screening for T3SS inhibitors; for Fraction of untreated control (exoS expression): structure-activity table, concentration not given
Description: To identify T3SS inhibitors of PA01, a promoter-probe vector pPROBE-AT containing the promoterless green fluorescent protein (gfp) gene was used to construct an exoS promoter-gfp plasmid reporter, pATexoS. PA01 containing pATexoS was cultured in T3SS-inducing medium containing dimethyl sulfoxide (DMSO; solvent of chemical compounds), or supplemented with 250 μM of each compound, and promoter activity was assessed at 6 h by measuring GFP intensity using flow cytometry. 101 compounds (58 synthesized and 43 commercially available) were screened. Compounds 027, 032, 101, and 149 repressed exoS expression at the final concentration of 250 μM by at least one standard deviation below the sample average (Z score≦−1) (FIG. 37 A-E). Z score (or standard score) indicates how many standard deviations an observation or datum is above or below the mean [z=(x−μ)/σ, where x is a raw score to be standardized, μ is the mean of the population, and σ is the standard deviation of the population].
To determine the effective concentration of compounds, the dose-dependent effect of potential inhibitors on exoS expression and bacterial growth were tested. P. aeruginosa cells carrying pATexoS were pre-cultured in LB supplemented with 200 mM NaCl and transferred to fresh LB with 200 mM NaCl, 10 mM NTA, and various concentrations of compounds (20, 50, 100, and 250 μM) or DMSO for 6 h. […] At 50 μM dosage, both 027 and 101 inhibited exoS expression at similar levels, and this inhibitory effect increased as compound concentration increased (FIG. 38A and Table 17). […] These inhibitions/inductions of exoS expression are caused by the shifting bacterial population between low-state expression cells and high-state expression cells (FIG. 40).

hrpA promoter (T3SS) [1] = test: hrpA promoter-probe phrpA in Erwinia amylovora 273, flow cytometry; format: cell-based; settings: Ea273 (phrpA), HIM + 100 μM compound
Description: Wild-type Erwinia amylovora 273 was used in this study. The promoter-probe plasmid phrpA was constructed as follows. The hrpA promoter region of Erwinia amylovora 273 was amplified and cloned into pPROBE-NT to produce PhrpA. Plasmid PhrpA was electroporated into Erwinia amylovora 273. Expression of hrpA was analyzed using a FACS Calibur flow cytometer (BD Biosciences, CA). Wild-type Erwinia amylovora 273 containing phrpA was cultured in a hrp-inducing medium (HIM) containing dimethyl sulfoxide (DMSO; solvent of chemical compounds), or HIM supplemented with 100 μM of each compound, and promoter activity was assessed at 6 h and 9 h by measuring GFP intensity using flow cytometry (Table 19).

hrpA promoter (T3SS) [2] = test: GFP reporter plasmid phrpA, flow cytometry (FACS) of hrpA promoter activity; format: cell-based, Dickeya dadantii 3937; settings: for mean fluorescence intensity of GFP, hrpA expression: D. dadantii 3937 (phrpA), MM + 100 μM compound; for inhibitory activity on T3SS gene (hrpA) expression, in words: D. dadantii 3937, reporter plasmid phrpA, 100 μM; for minimal effective concentration: Dickeya dadantii, read-out: minimal inhibitory concentration on hrpA expression (concentration showing inhibitory effect)
Description: FACS analysis of promoter activity of dspE, hrpA, hrpL, hrpN, and hrpS was carried out as described (Peng et al., 2006). Briefly, the wild-type Ech3937 and the mutant strains carrying the promoter reporter plasmid were grown on LB broth at 28° C. overnight and transferred to appropriate media. For FACS analysis, samples were collected by centrifugation, washed with 1× phosphate buffer saline (PBS) at 13,000 rpm for 1 min, and re-suspended in 1×PBS to ca 10^6 CFU/ml prior to being run in a FACS Calibur flow cytometer (BD Biosciences, CA). Three replicates were performed for each treatment.
To identify potential compounds that repress activation of T3SS, analogs and isomers of TCA and intermediates of salicylic acid and phenypropanoid biosynthesis pathways in plants were further screened for their effect on Ech3937 hrpA expression by flow cytometry (Table 9). A green fluorescent protein (GFP) reporter plasmid phrpA (pProbe-AT derivative with PCR fragment containing hrpA promoter region) was constructed, resulting in a transcriptional fusion of hrpA promoter with GFP gene. Bacterial cells containing phrpA plasmid were grown in MM supplemented with 0.1 mM of each compound. GFP intensity, which is a measurement of hrpA promoter activity, was measured by flow cytometry.
hrpA encodes the T3SS pilus required for protein translocation into plant cells. To test for an inhibitory effect on T3SS hrpA expression, the reporter plasmid phrpA was used to measure the effects of these compounds on hrpA expression. The reporter plasmid phrpA encodes a transcriptional fusion of the hrpA promoter controlling expression of green fluorescent protein (gfp). 50 μL of bacterial suspension of D. dadantii 3937 carrying the hrpA reporter (optical density at 600 nm OD600=1.0) was used as the initial inoculum and added to 5 mL of MM or MM supplemented with 100 μM of one of the compounds. The expression level of hrpA of these bacterial cells was measured by measuring GFP intensity of gated populations of the bacterial cells by flow cytometry and analyzed with Cell Quest software (BD Biosciences, San Jose, Calif.). The fluorescence intensities were an average GFP fluorescence intensity of total bacterial cells. Compounds were assayed two different times (12 and 24 h of bacterial growth) with T3SS minimal media (MM) as the control treatment for each set of experiment. Values presented in Table 14 are mean fluorescence intensity of GFP, representative of two experiments, presented as the average of three replicates with standard deviation (SD).

Row | Structure (SMILES) | effect on exoS promoter activity, in words (exoS promoter (T3SS)) | Fraction of untreated control (exoS expression) (exoS promoter (T3SS)) | Avg MFI ± SD, hrpA expression (hrpA promoter (T3SS) [1]; 6 h) | Avg MFI ± SD, hrpA expression (hrpA promoter (T3SS) [1]; 9 h) | mean fluorescence intensity of GFP, hrpA expression (hrpA promoter (T3SS) [2]; 12 h) | mean fluorescence intensity of GFP, hrpA expression (hrpA promoter (T3SS) [2]; 24 h) | inhibitory activity on T3SS gene (hrpA) expression, in words (hrpA promoter (T3SS) [2]) | minimal effective concentration (hrpA promoter (T3SS) [2]) [µM] | Mean Fluorescence Intensity of GFP (hrpA, phrpA) (hrpA promoter (T3SS) [2]; Trial 2, MM supplemented with compound at 100 μM)
1 | O=C(/C=C/c1ccccc1)NO [Compound 132, trans-Cinnamohydroxamic acid] | little or no effect on exoS promoter activity | 1.53 ± 0.19 | 145.7 ± 1.2 | 147.8 ± 4.2 |  |  |  |  | 
2 | CNC(=O)/C=C/c1ccc(O)cc1 [Compound 137, N-Methyl-4-hydroxycinnamamide] | little or no effect on exoS promoter activity | 0.92 ± 0.05 | 1064.1 ± 99.3 | 1121.1 ± 52.1 |  |  |  |  | 
3 | NC(=O)/C=C/c1ccc(O)cc1 [Compound 102, trans-4-Hydroxycinnamaide] |  |  | 1134.0 ± 36.7 | 766.4 ± 94.8 | 21.1 ± 1.2 | 60.8 ± 10.6 | did not show any inhibitory activity | 100 | 
4 | O=C(O)/C=C/c1ccc(C(F)(F)F)cc1 [Compound 113, trans-4-Trifluoromethylcinnamic acid] |  |  | 84.2 ± 7.5 | 97.4 ± 23.6 | 24.4 ± 0.9 | 68.5 ± 5.7 | inactive | 100 | 
5 | O=P(O)(O)/C=C/c1ccc(O)cc1 [Compound 115, trans-2-(4-Hydroxyphenyl)-vinylphosphonic acid] |  |  | 442.4 ± 2.3 | 553.3 ± 32.7 | 57.9 ± 1.6 | 79.6 ± 3.3 | did not exhibit any activity |  | 
6 | CN(C)c1ccc(/C=C/C(=O)O)cc1 [Compound 112, trans-4-Dimethylaminocinnamic acid] |  |  | 87.0 ± 4.0 | 37.3 ± 3.7 | 23.8 ± 4.3 | 60.7 ± 6.4 |  |  | 
7 | COc1ccc(/C=C/CN)cc1 [Compound 119, trans-4-Methoxycinnamylamine] |  |  | 208.6 ± 18.6 | 232.9 ± 44.4 | 47.8 ± 3.2 | 68.2 ± 10.4 | did not show any inhibitory activity |  | 
8 | NC(=O)/C=C/c1ccc(Cl)cc1 [Compound 109, trans-4-Chlorocinnamide] |  |  | 172.9 ± 20.5 | 90.6 ± 12.0 | 35.7 ± 6.3 | 81.5 ± 3.8 |  |  | 
9 | CCOP(=O)(/C=C/c1ccc(O)cc1)OCC [Compound 114, Diethyl trans-2-(4-hydroxyphenyl)-vinylphosphonate] |  |  | 495.8 ± 14.2 | 661.2 ± 134.3 | 55.4 ± 1.0 | 76.5 ± 5.6 | did not exhibit any activity |  | 
10 | COc1ccc([C@@H]2C[C@H]2C(=O)O)cc1 (relative stereo) [Compound 105, trans-2-(4-Methoxyphenyl)-1-cyclopropanecarboxylic acid] |  |  | 345.3 ± 11.9 | 200.2 ± 11.0 | 22.9 ± 2.6 | 82.4 ± 5.8 |  | 100 | 
11 | NC/C=C/c1ccc(O)cc1 [Compound 117, para-Coumarylamine] |  |  | 452.6 ± 9.5 | 547.9 ± 112.4 | 49.8 ± 1.6 | 73.1 ± 2.0 | did not show any inhibitory activity |  | 
12 | O=C(O)/C=C/c1ccc(CO)cc1 [Compound 124, trans-4-Hydroxymethylcinnamic acid] |  |  | 419.8 ± 12.2 | 444.3 ± 11.4 | 44.9 ± 3.5 | 78.1 ± 3.4 | did not show any inhibitory activity |  | 
13 | O=C1c2ccccc2C(=O)N1C/C=C/c1ccc(O)cc1 [Compound 116, N-(para-Coumaryl)phthalimide] |  |  | 889.1 ± 61.8 | 1466.4 ± 17.8 | 24.3 ± 1.5 | 39.3 ± 3.5 | showed inhibitory effect; also recorded: moderated inhibitory activity | 100 | 27.0 ± 2.1
